Data: BindingDB's records for patent US20240109900 (IRBM, 2024)

These compounds were tested against T1, Tyrosine-protein phosphatase non-receptor type 11 (Homo sapiens, UniProt Q06124) (assay: SHP2 Inhibition Enzymatic Assay).
T1 sequence (Q06124 whole entry): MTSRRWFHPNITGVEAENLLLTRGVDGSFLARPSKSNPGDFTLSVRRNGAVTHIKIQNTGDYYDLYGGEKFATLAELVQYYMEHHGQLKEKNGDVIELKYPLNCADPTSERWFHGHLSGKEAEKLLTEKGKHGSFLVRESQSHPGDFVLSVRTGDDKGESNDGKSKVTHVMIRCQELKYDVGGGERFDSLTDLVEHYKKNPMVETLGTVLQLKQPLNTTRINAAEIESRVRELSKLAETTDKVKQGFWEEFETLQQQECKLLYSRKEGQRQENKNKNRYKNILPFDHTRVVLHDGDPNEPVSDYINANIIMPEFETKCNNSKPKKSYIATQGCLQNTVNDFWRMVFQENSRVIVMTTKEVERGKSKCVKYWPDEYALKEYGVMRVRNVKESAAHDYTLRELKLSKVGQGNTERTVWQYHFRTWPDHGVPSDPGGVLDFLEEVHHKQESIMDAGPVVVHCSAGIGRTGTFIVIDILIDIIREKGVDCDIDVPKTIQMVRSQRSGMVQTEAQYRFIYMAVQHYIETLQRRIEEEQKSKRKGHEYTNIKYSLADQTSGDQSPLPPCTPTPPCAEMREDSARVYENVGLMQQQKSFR
Description: Assay volume of 20 μL/well was assembled in 384 well black polystyrene low-binding microplates (Greiner), using the following buffer: 60 mM HEPES pH 7.2, 75 mM NaCl, 75 mM KCl, 1 mM EDTA pH 8, 0.05% tween-20, 5 mM DTT. The SHP-2 enzyme (synthetized by Origene, Met1-Leu525, cat #TP750155) was used at a final concentration of 0.5 nM. […] SHP2 was then added together with the IRS1 peptide. 30 min post incubation, the DiFMUP substrate was added to the reaction and incubated 30 min at room temperature. […] The fluorescence was detected by a microplate reader (Envision, PerkinElmer) according to the DiFMUP excitation and emission wavelength. The lower the fluorescence the higher the SHP2 inhibition. […] The percentage inhibition is fitted against the compound dilutions with a four-parameter logistic regression.

| Compound | IC50 |
| --- | --- |
| NCC1(c2ccccc2F)C2CCN(c3cc4nc(Sc5ccnc(N)c5Cl)cnc4[nH]3)CC21 (centres undefined) [US20240109900, Example 59] | < 500 nM |
| Cc1cc(C(N)=O)ncc1-c1n[nH]c2nc(N3CC[C@@H]4[C@H](C3)[C@@]4(CN)c3ccccc3F)cnc12 [US20240109900, Example 307] | < 500 nM |
| Cc1c(-c2n[nH]c3nc(N4CC[C@@H]5[C@H](C4)[C@@]5(CN)c4cc(F)cc(F)c4)cnc23)ccc2nn(C)cc12 [US20240109900, Example 308] | < 500 nM |
| N#CNC(=O)c1ccc(-c2n[nH]c3nc(N4CC[C@@H]5[C@H](C4)[C@@]5(CN)c4ccccc4F)cnc23)c(Cl)c1 [US20240109900, Example 310] | < 500 nM |
| NC[C@]1(c2ccccc2F)[C@@H]2CCN(c3cnc4c(-c5ccc(-c6cc(F)c(O)c(F)c6)cc5Cl)n[nH]c4n3)C[C@@H]21 [US20240109900, Example 313] | < 500 nM |
| NC[C@]1(c2ccccc2F)[C@@H]2CCN(c3cnc4c(-c5ccc(F)c6c(=O)[nH]ccc56)n[nH]c4n3)C[C@@H]21 [US20240109900, Example 314] | < 500 nM |
| Cc1c(-c2n[nH]c3nc(N4CC[C@@H]5[C@H](C4)[C@@]5(CN)c4ccccc4F)cnc23)ccc2c1ncn2C [US20240109900, Example 318] | < 500 nM |
| NC[C@]1(c2ccccc2F)[C@@H]2CCN(c3cnc4c(-c5ccc6c(N)nccc6c5)n[nH]c4n3)C[C@@H]21 [US20240109900, Example 319] | < 500 nM |
| CN1CCOc2ccc(-c3n[nH]c4nc(N5CC[C@@H]6[C@H](C5)[C@@]6(CN)c5ccccc5F)cnc34)c(Cl)c21 [US20240109900, Example 321] | < 500 nM |
| NC[C@]1(c2ccccc2F)[C@@H]2CCN(c3cnc4c(-c5ccc(CC(N)=O)cc5Cl)n[nH]c4n3)C[C@@H]21 [US20240109900, Example 328] | < 500 nM |
| NC[C@]1(c2ccccc2F)[C@@H]2CCN(c3nc4nc(Sc5ccnc(-n6cccn6)c5Cl)cnc4[nH]3)C[C@@H]21 [US20240109900, Example 342] | < 500 nM |
| COc1nccc2cc(-c3n[nH]c4nc(N5CC[C@@H]6[C@H](C5)[C@@]6(CN)c5ccccc5F)cnc34)ccc12 [US20240109900, Example 352] | < 500 nM |
| Cc1nc2ccc(-c3n[nH]c4nc(N5CC[C@@H]6[C@H](C5)[C@@]6(CN)c5ccccc5F)cnc34)c(Cl)c2n1C [US20240109900, Example 358] | < 500 nM |
| NC[C@]1(c2ccccc2F)[C@@H]2CCN(c3cnc4c(-c5ccc6nn(CCO)cc6c5Cl)n[nH]c4n3)C[C@@H]21 [US20240109900, Example 365] | < 500 nM |
| CC(C)(C)C#Cc1n[nH]c2nc(N3CC[C@@H]4[C@H](C3)[C@@]4(CN)c3ccccc3F)cnc12 [US20240109900, Example 366] | < 500 nM |
| NC[C@]1(c2ccccc2F)[C@@H]2CCN(c3cnc4c(-c5ccc(-c6nsc(O)n6)cc5Cl)n[nH]c4n3)C[C@@H]21 [US20240109900, Example 379] | < 500 nM |

The next lines start with the values.

| IC50 | Compound |
| --- | --- |
| < 500 nM | NC[C@]1(c2ccsn2)[C@@H]2CN(c3cnc4c(-c5ccc6nn(C(F)F)cc6c5Cl)n[nH]c4n3)C[C@@H]21 [US20240109900, Example 468] |
| < 500 nM | Cc1csc([C@@]2(CN)[C@@H]3CN(c4cnc5c(-c6ccnc(C)c6F)n[nH]c5n4)C[C@@H]32)n1 [US20240109900, Example 477] |
| < 500 nM | Cc1csc([C@@]2(CN)[C@@H]3CCN(c4cnc5c(-c6ccc(F)c7ncccc67)c[nH]c5n4)C[C@@H]32)n1 [US20240109900, Example 502] |
| < 500 nM | Cc1csc([C@@]2(CN)[C@@H]3CN(c4cnc5c(-c6ccc7c(c6)CC(=O)N7C)n[nH]c5n4)C[C@@H]32)n1 [US20240109900, Example 513] |
| < 500 nM | Cc1csc([C@@]2(CN)[C@@H]3CN(c4cnc5c(-c6ccnc(-n7cccn7)c6Cl)n[nH]c5n4)C[C@@H]32)n1 [US20240109900, Example 516] |
| < 500 nM | Cc1csc([C@@]2(CN)[C@@H]3CN(c4cnc(Sc5ccnc(-n6cccn6)c5Cl)cn4)C[C@@H]32)n1 [US20240109900, Example 520] |
| < 500 nM | Cc1csc([C@@]2(CN)[C@@H]3CN(c4nc(C)n(-c5cccc(Cl)c5Cl)c(=O)c4Cl)C[C@@H]32)n1 [US20240109900, Example 526] |
| < 500 nM | NC[C@]1(c2cc(F)ccc2F)[C@@H]2CCN(c3cnc4c(-c5cccc6c5CCC(=O)N6)n[nH]c4n3)C[C@@H]21 [US20240109900, Example 531] |
